Laboratory results from US11110089B2, “Pyridazinones and their use in the treatment of cancer” (THE UNITED STATES OF AMERICA, AS REPRESENTED BY THE …, priority 2015, dated 2021).

Tests used:
[1] = molecular target: T1, recombinant thioredoxin reductase 1 (TrxR1) (Homo sapiens, UniProt Q16881); assay: Inhibition of recombinant TrxR1 (DTNB assay); format: biochemical; conditions: 15 nM TrxR1, 250 μM NADPH, 15 minutes incubation, 2.5 mM DTNB, O.D. at 412 nm; read-out: TrxR inhibition
T1 sequence (Q16881 151-649 limits assumed): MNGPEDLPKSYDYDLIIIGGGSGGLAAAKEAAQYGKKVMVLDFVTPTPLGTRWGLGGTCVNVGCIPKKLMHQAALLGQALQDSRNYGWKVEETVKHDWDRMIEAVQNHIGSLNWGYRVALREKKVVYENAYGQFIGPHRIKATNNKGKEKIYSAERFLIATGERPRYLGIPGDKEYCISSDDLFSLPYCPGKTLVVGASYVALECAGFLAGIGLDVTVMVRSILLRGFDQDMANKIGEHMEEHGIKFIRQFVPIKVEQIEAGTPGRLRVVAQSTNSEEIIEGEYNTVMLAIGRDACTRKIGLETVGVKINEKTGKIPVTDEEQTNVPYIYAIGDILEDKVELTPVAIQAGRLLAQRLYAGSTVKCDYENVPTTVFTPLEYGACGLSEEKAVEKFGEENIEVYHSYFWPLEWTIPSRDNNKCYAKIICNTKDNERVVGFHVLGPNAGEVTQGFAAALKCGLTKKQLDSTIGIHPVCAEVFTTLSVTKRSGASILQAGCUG
Protocol: (§1) Small molecule inhibition of recombinant thioredoxin reductase 1 (TrxR1) and gluthathione reductase (GR) was examined in 96-well plate format. 15 nM TrxR1 was incubated in the presence of 250 μM NADPH, 0.1 mg/ml BSA, and various concentrations of the compound of Example 1 (1% DMSO final) in 50 mM Tris (pH 7.5) and 2 mM EDTA buffer for 15 minutes. Following the incubation period, 2.5 mM DTNB was added to each well and the change in O.D. at 412 nm was followed. Percent activity was determined using DMSO vehicle and no TrxR1 (blank) controls. 2 nM GR was incubated in the presence of 250 μM NADPH, 0.1 mg/ml BSA, and various concentrations of compounds (1% DMSO final) in 50 mM Tris (pH 7.5) and 2 mM EDTA buffer for 15 minutes. Following the incubation period, 1 mM GSSG was added to each well and the change in O.D. at 340 nm was followed. Percent activity was determined using DMSO vehicle and no GR (blank) controls.

[2] = molecular target: T2, gluthathione reductase (GR) (Homo sapiens, UniProt P00390); assay: Inhibition of recombinant GR (GSSG assay); format: biochemical; conditions: 2 nM GR, 250 μM NADPH, 15 minutes incubation, 1 mM GSSG, O.D. at 340 nm
T2 sequence (P00390 44-522): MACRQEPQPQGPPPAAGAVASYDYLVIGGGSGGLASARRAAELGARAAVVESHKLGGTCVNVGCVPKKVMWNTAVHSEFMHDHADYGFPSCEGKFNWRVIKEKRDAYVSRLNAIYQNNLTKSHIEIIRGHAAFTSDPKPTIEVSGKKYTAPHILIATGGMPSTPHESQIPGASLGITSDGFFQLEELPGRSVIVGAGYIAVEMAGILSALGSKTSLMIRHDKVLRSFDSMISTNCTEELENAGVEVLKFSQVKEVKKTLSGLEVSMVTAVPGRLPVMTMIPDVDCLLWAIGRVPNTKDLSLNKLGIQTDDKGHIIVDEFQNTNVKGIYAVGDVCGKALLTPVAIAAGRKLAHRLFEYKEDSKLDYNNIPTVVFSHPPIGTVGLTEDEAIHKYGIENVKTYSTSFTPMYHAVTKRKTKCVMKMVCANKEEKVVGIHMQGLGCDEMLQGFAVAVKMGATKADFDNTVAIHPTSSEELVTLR
Protocol: as §1

IC50 [1]: 1850 nM
IC50 [2]: > 100000 nM
SMILES: O=c1c(Cl)c(Cl)cnn1Cc1nnc(-c2ccc(Cl)cc2)o1 [Example 1, 4,5-dichloro-2-((5-(4-chlorophenyl)-1,3,4-oxadiazol-2-yl)methyl)pyridazin-3-one]
